Key:
Assay in all cases: Competitive isoTOP-ABPP, cell lysates;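 for isoTOP-ABPP reactivity profile ratio, P63244 C182: Heavy/light ratio DMSO over fragment-treated so higher means more cysteine engagement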;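 for isoTOP-ABPP reactivity profile ratio, P68036 C86: Heavy/light ratio DMSO over fragment-treated so higher means more cysteine engagement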
Type in all cases: binding
[1] = target: ZNF217 C286 (O75362) (Homo sapiens, UniProt O75362); conditions: for isoTOP-ABPP ratio (reactivity profile), O75362_C286: 500 μm in-vitro ramos_231
[2] = target: GNB2L1 C182 (P63244) (Homo sapiens, UniProt P63244);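 for isoTOP-ABPP reactivity profile ratio, P63244 C182: Heavy/light ratio DMSO over fragment-treated so higher means more cysteine engagement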
[3] = target: T1, UCHL3 C95 (P15374) (Homo sapiens, UniProt P15374)
T1 sequence (P15374 1-230): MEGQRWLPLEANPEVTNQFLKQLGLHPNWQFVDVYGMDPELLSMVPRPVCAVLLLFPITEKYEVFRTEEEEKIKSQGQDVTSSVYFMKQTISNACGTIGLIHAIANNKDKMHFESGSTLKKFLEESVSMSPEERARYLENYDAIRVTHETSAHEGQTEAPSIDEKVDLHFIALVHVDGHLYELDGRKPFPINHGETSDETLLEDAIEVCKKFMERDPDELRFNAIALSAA

[4] = target: UBE2L3 C86 (P68036) (Homo sapiens, UniProt P68036);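 for isoTOP-ABPP reactivity profile ratio, P68036 C86: Heavy/light ratio DMSO over fragment-treated so higher means more cysteine engagement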
[5] = target: GSTP1 C48 (P09211) (Homo sapiens, UniProt P09211)
[6] = target: SAMHD1 C522 (Q9Y3Z3) (Homo sapiens, UniProt Q9Y3Z3)
[7] = target: PRMT1 C109 (Q99873) (Homo sapiens, UniProt Q99873)
[8] = target: T2, PDIA6 C190 (Q15084) (Homo sapiens, UniProt Q15084); conditions: for isoTOP-ABPP reactivity profile ratio, Q15084_C190: 500 μm
T2 sequence (Q15084 20-440): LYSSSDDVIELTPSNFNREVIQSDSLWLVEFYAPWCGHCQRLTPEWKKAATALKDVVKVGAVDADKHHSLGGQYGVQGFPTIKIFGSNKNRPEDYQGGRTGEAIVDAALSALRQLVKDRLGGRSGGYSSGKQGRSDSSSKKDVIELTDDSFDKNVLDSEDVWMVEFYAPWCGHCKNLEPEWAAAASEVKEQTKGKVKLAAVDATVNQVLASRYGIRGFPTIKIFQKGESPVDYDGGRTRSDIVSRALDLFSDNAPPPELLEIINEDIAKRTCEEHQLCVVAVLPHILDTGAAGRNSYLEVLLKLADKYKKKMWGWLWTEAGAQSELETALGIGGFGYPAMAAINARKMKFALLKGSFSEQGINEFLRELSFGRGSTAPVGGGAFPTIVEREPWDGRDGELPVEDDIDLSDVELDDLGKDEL

[9] = target: SMARCC2 C145 (Q8TAQ2) (Homo sapiens, UniProt Q8TAQ2)
[10] = target: T3, AIP C122 (O00170) (Homo sapiens, UniProt O00170)
T3 sequence (O00170 1-330): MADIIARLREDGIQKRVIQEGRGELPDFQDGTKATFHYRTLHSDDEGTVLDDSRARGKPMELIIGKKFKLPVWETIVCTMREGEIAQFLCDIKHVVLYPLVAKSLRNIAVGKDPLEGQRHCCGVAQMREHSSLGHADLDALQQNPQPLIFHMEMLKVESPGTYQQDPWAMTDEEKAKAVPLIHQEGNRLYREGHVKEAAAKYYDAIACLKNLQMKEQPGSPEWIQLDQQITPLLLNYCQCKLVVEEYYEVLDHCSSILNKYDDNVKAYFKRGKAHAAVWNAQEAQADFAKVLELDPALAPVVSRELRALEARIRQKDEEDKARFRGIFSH

SMILES	isoTOP-ABPP ratio (reactivity profile), O75362_C286 [1]	isoTOP-ABPP ratio (reactivity profile), P63244_C182 ([2]; 500 μm in-vitro ramos)	isoTOP-ABPP ratio (reactivity profile), P63244_C182 ([2]; 500 μm in-vitro ramos_231)	isoTOP-ABPP ratio (reactivity profile), P15374_C95 ([3]; 500 μm in-vitro ramos_231)	isoTOP-ABPP ratio (reactivity profile), P68036_C86 ([4]; 500 μm in-vitro ramos)	isoTOP-ABPP ratio (reactivity profile), P68036_C86 ([4]; 500 μm in-vitro ramos_231)	isoTOP-ABPP ratio (reactivity profile), P09211_C48 ([5]; 500 μm in-vitro ramos)	isoTOP-ABPP ratio (reactivity profile), P09211_C48 ([5]; 500 μm in-vitro ramos_231)	isoTOP-ABPP ratio (reactivity profile), Q9Y3Z3_C522 ([6]; 500 μm in-vitro ramos)	isoTOP-ABPP ratio (reactivity profile), Q99873_C109 ([7]; 500 μm in-vitro ramos)	isoTOP-ABPP ratio (reactivity profile), Q99873_C109 ([7]; 500 μm in-vitro ramos_231)	isoTOP-ABPP ratio (reactivity profile), Q15084_C190 ([8]; 500 μm in-vitro ramos)	isoTOP-ABPP ratio (reactivity profile), Q15084_C190 ([8]; 500 μm in-vitro ramos_231)	isoTOP-ABPP ratio (reactivity profile), Q8TAQ2_C145 ([9]; 500 μm in-vitro ramos_231)	isoTOP-ABPP ratio (reactivity profile), P15374_C95 ([3]; 500 μm in-vitro ramos)	isoTOP-ABPP ratio (reactivity profile), Q8TAQ2_C145 ([9]; 500 μm in-vitro ramos)	isoTOP-ABPP ratio (reactivity profile), O00170_C122 ([10]; 500 μm in-vitro ramos)	other results
O=C(CCl)NC12CC3CC(CC(C3)C1)C2 [compound 21]	0.9	0.9	0.9	1.1	2.0	1.2	1.3	1.1	1.4	1.5	1.1	2.3	1.1	1.2	–	–	–	isoTOP-ABPP ratio (reactivity profile), O00170_C122 ([10]; 500 μm in-vitro ramos_231): 1.4
O=C(CCl)Nc1ccc(-c2ccccc2)cc1 [compound 52]	–	–	–	–	–	–	–	–	–	–	–	–	–	–	–	–	–	isoTOP-ABPP reactivity profile ratio, O75362_C286 ([1]; 500 μm, in-vitro_ramos_231): 1.0; isoTOP-ABPP reactivity profile ratio, P63244_C182 ([2]; 500 μm, in-vitro_ramos_231): 1.0; isoTOP-ABPP reactivity profile ratio, P15374_C95 ([3]; 500 μm, in-vitro_ramos_231): 1.2; isoTOP-ABPP reactivity profile ratio, P68036_C86 ([4]; 500 μm, in-vitro_ramos): 1.3; isoTOP-ABPP reactivity profile ratio, P68036_C86 ([4]; 500 μm, in-vitro_ramos_231): 0.8; isoTOP-ABPP reactivity profile ratio, P09211_C48 ([5]; 500 μm, in-vitro_ramos): 1.9; isoTOP-ABPP reactivity profile ratio, P09211_C48 ([5]; 500 μm, in-vitro_ramos_231): 1.0; isoTOP-ABPP reactivity profile ratio, Q9Y3Z3_C522 ([6]; 500 μm, in-vitro_ramos_231): 1.2; isoTOP-ABPP reactivity profile ratio, Q99873_C109 ([7]; 500 μm, in-vitro_ramos): 1.3; isoTOP-ABPP reactivity profile ratio, Q99873_C109 ([7]; 500 μm, in-vitro_ramos_231): 0.9; isoTOP-ABPP reactivity profile ratio, Q15084_C190 ([8]; in-vitro_ramos): 1.9; isoTOP-ABPP reactivity profile ratio, Q15084_C190 ([8]; in-vitro_ramos_231): 1.0; isoTOP-ABPP reactivity profile ratio, Q8TAQ2_C145 ([9]; 500 μm, in-vitro_ramos): 1.8; isoTOP-ABPP reactivity profile ratio, Q8TAQ2_C145 ([9]; 500 μm, in-vitro_ramos_231): 0.9; isoTOP-ABPP reactivity profile ratio, O00170_C122 ([10]; 500 μm, in-vitro_ramos): 1.4
O=C(CCl)N1CCC(C(O)(c2ccccc2)c2ccccc2)CC1 [compound 20]	1.3	1.1	1.4	1.0	1.2	1.1	1.1	2.5	1.3	2.2	1.9	2.1	2.1	2.9	0.9	3.9	2.2	isoTOP-ABPP ratio (reactivity profile), Q9Y3Z3_C522 ([6]; 500 μm in-vitro ramos_231): 2.1
CCN(CC)c1ccc(S(N)(=O)=O)cc1NC(=O)CCl [compound 30]	–	1.2	–	–	–	–	1.4	–	0.7	1.1	–	2.3	–	–	0.7	1.1	1.1	isoTOP-ABPP reactivity ratio, O75362_C286 ([1]; 500 μm, in-vitro_ramos): 2.1; isoTOP-ABPP reactivity ratio, P63244_C182 ([2]; 500 μm, in-vitro_ramos): 1.6; isoTOP-ABPP reactivity ratio, P15374_C95 ([3]; 500 μm, in-vitro_ramos): 1.0; isoTOP-ABPP reactivity ratio, P68036_C86 ([4]; 500 μm, in-vitro_ramos): 1.5; isoTOP-ABPP reactivity ratio, P09211_C48 ([5]; 500 μm, in-vitro_ramos): 1.2; isoTOP-ABPP reactivity ratio, Q99873_C109 ([7]; 500 μm, in-vitro_ramos): 1.8; isoTOP-ABPP reactivity ratio, Q8TAQ2_C145 ([9]; 500 μm, in-vitro_ramos): 1.5; isoTOP-ABPP reactivity ratio, O00170_C122 ([10]; 500 μm, in-vitro_ramos): 2.0

From patent US10670605B2, “Cysteine reactive probes and uses thereof” (The Scripps Research Institute, priority 2015, dated 2020)
